Data taken from ChEMBL document CHEMBL1132821, “2,4,5-Trisubstituted imidazoles: novel nontoxic modulators of P-glycoprotein mediated multidrug resistance. Part 1” (Bioorg Med Chem Lett, 2000).

How the values were obtained:
NCI/ADR-RES [1] = assay: Compound (1 uM) was evaluated for the inhibition of cell growth in MCF-7/ADR* cell line (over expresses Pgp and is for Doxorubicin resistant) in the presence of Taxol; format: functional; conditions: Homo sapiens, read-out: ED50 (the source's name)
NCI/ADR-RES [2] = assay: Compound (1 uM) was evaluated for the inhibition of cell growth in MCF-7/ADR* cell line (over expresses Pgp and is for Doxorubicin resistant) in the presence of vinblastine; format: functional; conditions: Homo sapiens, read-out: ED50 (the source's name)
MES-SA/Dx5 [3] = assay: Compound (1 uM) was evaluated for the inhibition of cell growth in MES-SA/DX5** cell line (over expresses Pgp and is for Doxorubicin resistant) in the presence of doxorubicin; format: functional; conditions: Homo sapiens, read-out: ED50 (the source's name)
MES-SA/Dx5 [4] = assay: Compound (1 uM) was evaluated for the inhibition of cell growth in MES-SA/DX5** cell line (over expresses Pgp and is for Doxorubicin resistant) in the presence of taxol; format: functional; conditions: Homo sapiens, read-out: ED50 (the source's name)
NCI/ADR-RES [5] = assay: Compound (1 uM) was evaluated for the inhibition of cell growth in MCF-7/ADR cell line (over expresses Pgp and is for Doxorubicin resistant) in the presence of vinblastine; format: functional; conditions: Homo sapiens, read-out: ED50 (the source's name)
MES-SA/Dx5 [6] = assay: Compound (1 uM) was evaluated for the inhibition of cell growth in MES-SA/DX5 cell line (over expresses Pgp and is for Doxorubicin resistant) in the presence of taxol; format: functional; conditions: Homo sapiens, read-out: ED50 (the source's name)
[7] = biological target: ATP-dependent translocase ABCB1 (Homo sapiens, UniProt P08183); assay: Evaluated for inhibition of growth of CEM/VLB1000 cell line using multidrug resistance (MDR) potentiation assay
MES-SA/Dx5 [8] = assay: Compound (1 uM) was evaluated for the inhibition of cell growth in MES-SA/DX5 cell line (over expresses Pgp and is Doxorubicin resistant) in the presence of doxorubicin; format: functional; conditions: Homo sapiens, read-out: ED50 (the source's name)
NCI/ADR-RES [9] = assay: Compound (1 uM) was evaluated for the inhibition of cell growth in MCF-7/ADR cell line (over expresses Pgp and is for Doxorubicin resistant) in the presence of Taxol; format: functional; conditions: Homo sapiens, read-out: ED50 (the source's name)

ATP-dependent translocase ABCB1, sequence (P08183 whole entry): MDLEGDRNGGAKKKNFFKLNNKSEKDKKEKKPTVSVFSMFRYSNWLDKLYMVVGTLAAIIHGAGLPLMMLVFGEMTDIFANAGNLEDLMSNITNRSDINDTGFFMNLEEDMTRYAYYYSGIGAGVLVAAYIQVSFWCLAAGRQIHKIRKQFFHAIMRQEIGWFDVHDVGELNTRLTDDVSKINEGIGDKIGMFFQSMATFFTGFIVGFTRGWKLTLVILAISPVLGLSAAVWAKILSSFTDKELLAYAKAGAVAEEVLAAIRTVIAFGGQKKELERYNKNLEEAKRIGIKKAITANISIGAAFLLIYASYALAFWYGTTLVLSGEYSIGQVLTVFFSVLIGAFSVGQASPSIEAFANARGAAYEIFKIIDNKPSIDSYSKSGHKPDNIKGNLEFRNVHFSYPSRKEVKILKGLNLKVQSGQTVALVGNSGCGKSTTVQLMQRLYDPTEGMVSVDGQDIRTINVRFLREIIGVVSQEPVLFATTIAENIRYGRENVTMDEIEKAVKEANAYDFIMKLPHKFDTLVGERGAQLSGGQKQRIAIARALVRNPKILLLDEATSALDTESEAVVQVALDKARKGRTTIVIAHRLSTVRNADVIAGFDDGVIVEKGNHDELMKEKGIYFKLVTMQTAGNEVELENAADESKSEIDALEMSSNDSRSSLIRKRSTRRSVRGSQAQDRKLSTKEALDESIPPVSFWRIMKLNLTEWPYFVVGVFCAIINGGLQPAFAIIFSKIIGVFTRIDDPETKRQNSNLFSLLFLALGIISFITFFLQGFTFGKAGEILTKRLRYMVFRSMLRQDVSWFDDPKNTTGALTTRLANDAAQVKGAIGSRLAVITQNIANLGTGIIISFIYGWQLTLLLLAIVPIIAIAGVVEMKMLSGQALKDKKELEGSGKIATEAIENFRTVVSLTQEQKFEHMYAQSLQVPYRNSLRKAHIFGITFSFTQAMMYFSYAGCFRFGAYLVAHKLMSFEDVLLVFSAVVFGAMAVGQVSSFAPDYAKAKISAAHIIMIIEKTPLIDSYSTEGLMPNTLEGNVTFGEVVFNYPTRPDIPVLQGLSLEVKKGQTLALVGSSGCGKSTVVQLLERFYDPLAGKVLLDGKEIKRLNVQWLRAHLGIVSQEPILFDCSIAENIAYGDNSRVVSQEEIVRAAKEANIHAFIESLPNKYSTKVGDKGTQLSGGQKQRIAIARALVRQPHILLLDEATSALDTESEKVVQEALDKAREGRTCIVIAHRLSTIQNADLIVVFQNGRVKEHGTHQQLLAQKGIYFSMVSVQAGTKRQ

SMILES	GI50 ([7]; read-out: ED50) [nM]	also measured
CC(C)OC(=O)/C=C/c1ccc(-c2nc(-c3ccc(N(C)C)cc3)c(-c3ccc(N(C)C)cc3)[nH]2)cc1	–	EC50 (NCI/ADR-RES [1]): 0.15 µg/mL; EC50 (NCI/ADR-RES [2]): 0.028 µg/mL; EC50 (MES-SA/Dx5 [3]): 0.34 µg/mL; EC50 (MES-SA/Dx5 [4]): 0.13 µg/mL
CCOC/C=C/c1ccc(-c2nc(-c3ccc(N(C)C)cc3)c(-c3ccc(N(C)C)cc3)[nH]2)cc1	80	EC50 (NCI/ADR-RES [5]): 0.01 µg/mL; EC50 (MES-SA/Dx5 [6]): 0.024 µg/mL; EC50 (MES-SA/Dx5 [8]): 0.089 µg/mL; EC50 (NCI/ADR-RES [9]): 0.036 µg/mL
CN(C)c1ccc(-c2nc(-c3ccc(/C=C/C#N)cc3)[nH]c2-c2ccc(N(C)C)cc2)cc1	600	–
COc1ccc(CCN(C)CCCC(C#N)(c2ccc(OC)c(OC)c2)C(C)C)cc1OC (stereo unspecified)	–	EC50 (NCI/ADR-RES [1]): 2.5 µg/mL; EC50 (NCI/ADR-RES [2]): 0.251 µg/mL; EC50 (MES-SA/Dx5 [3]): 3 µg/mL; EC50 (MES-SA/Dx5 [4]): 2.5 µg/mL
CN(C)c1ccc(-c2nc(-c3ccc(/C=C/C(=O)O)cc3)n(CCc3ccccc3)c2-c2ccc(N(C)C)cc2)cc1	20000	–
CCCCCCn1c(-c2ccc(C(=O)OC)cc2)nc(-c2ccc(N(C)C)cc2)c1-c1ccc(N(C)C)cc1	–	GI50 [7]: 6000 nM
CCCCC(=O)OC/C=C/c1ccc(-c2nc(-c3ccc(N(C)C)cc3)c(-c3ccc(N(C)C)cc3)[nH]2)cc1	480	–
CN(C)c1ccc(-c2nc(-c3ccc(/C=C/COc4ccccc4)cc3)[nH]c2-c2ccc(N(C)C)cc2)cc1	450	–
CN(C)C/C=C/c1ccc(-c2nc(-c3ccc(N(C)C)cc3)c(-c3ccc(N(C)C)cc3)[nH]2)cc1	1300	–
CCCCOC/C=C/c1ccc(-c2nc(-c3ccc(N(C)C)cc3)c(-c3ccc(N(C)C)cc3)[nH]2)cc1	–	GI50 [7]: 110 nM
CCN(CC)C(=O)OC/C=C/c1ccc(-c2nc(-c3ccc(N(C)C)cc3)c(-c3ccc(N(C)C)cc3)[nH]2)cc1	–	GI50 [7]: 880 nM
CN(C)c1ccc(-c2nc(-c3ccc(O)cc3)n(CCc3ccccc3)c2-c2ccc(N(C)C)cc2)cc1	1000	–
CCCCCCn1c(-c2ccc(C(=O)O)cc2)nc(-c2ccc(N(C)C)cc2)c1-c1ccc(N(C)C)cc1	2000	–
COCCOC/C=C/c1ccc(-c2nc(-c3ccc(N(C)C)cc3)c(-c3ccc(N(C)C)cc3)[nH]2)cc1	90	–
CN(C)c1ccc(-c2nc(-c3ccc(C(=O)O)cc3)n(CCc3ccccc3)c2-c2ccc(N(C)C)cc2)cc1	10000	–
CN(C)c1ccc(-c2nc(-c3ccc(/C=C/COCc4ccccc4)cc3)[nH]c2-c2ccc(N(C)C)cc2)cc1	300	–

Now from value to compound, other results behind:

GI50 ([7]; read-out: ED50) [nM]	SMILES	also measured
310	COC(=O)C1CC1c1ccc(-c2nc(-c3ccc(N(C)C)cc3)c(-c3ccc(N(C)C)cc3)[nH]2)cc1 (stereo unspecified)	–
1000	COC(=O)CCc1ccc(-c2nc(-c3ccc(N(C)C)cc3)c(-c3ccc(N(C)C)cc3)[nH]2)cc1	–
300	COCCCc1ccc(-c2nc(-c3ccc(N(C)C)cc3)c(-c3ccc(N(C)C)cc3)[nH]2)cc1	–
130	COC/C=C/c1ccc(-c2nc(-c3ccc(N(C)C)cc3)c(-c3ccc(N(C)C)cc3)[nH]2)cc1	–
60000	CN(C)c1ccc(-c2nc(-c3ccc(C(=O)O)cc3)[nH]c2-c2ccc(N(C)C)cc2)cc1	–
1100	COCCCCc1ccc(-c2nc(-c3ccc(N(C)C)cc3)c(-c3ccc(N(C)C)cc3)[nH]2)cc1	–
10000	CN(C)c1ccc(-c2nc(-c3ccc(/C=C/C(=O)O)cc3)[nH]c2-c2ccc(N(C)C)cc2)cc1	–
300	COC(=O)/C=C/c1ccc(-c2nc(-c3ccc(N(C)C)cc3)c(-c3ccc(N(C)C)cc3)[nH]2)cc1	–
600	COC(=O)c1ccc(-c2nc(-c3ccc(N(C)C)cc3)c(-c3ccc(N(C)C)cc3)[nH]2)cc1	–
5000	CN(C)c1ccc(-c2nc(-c3ccc(O)cc3)[nH]c2-c2ccc(N(C)C)cc2)cc1	–
